Values quoted from earlier work in US8318201B2, “Method of stabilizing diarylvinylene compound” (Kyowa Hakko Kirin Co., Ltd., priority 2003, dated 2012).

Settings: Bioorg. Med. Chem. Lett., vol. 7, p. 2349-2352 (1997); particularly unstable in a state of a solution

## CCn1c(=O)c2c(nc(/C=C/c3ccc(OC)c(OC)c3)n2C)n(CC)c1=O [Compound 1, (E)-8-(3,4-dimethoxystyryl)-1,3-diethyl-7-methyl-3,7-dihydro-1H-purine-2,6-dione]
  stability under irradiation of light (isomerization at the vinylene moiety): unstable particularly under irradiation of light
